The values below are quoted from earlier work in PMC8198792, “Prediction of Anticancer Peptides with High Efficacy and Low Toxicity by Hybrid Model Based on 3D Structure of Peptides” (International Journal of Molecular Sciences, 2021).

Read-outs that look alike come from different tables or passages of the source.

The test system of this data set is cancer cell lines. Details: method as in 6 sources, ref CancerPPD [45] and SATPdb ||| ref CancerPPD/SATPdb ||| ref CancerPPD, SATPdb, Swissprot (PDB) ||| ref CancerPPD/SATPdb/Swissprot(PDB) ||| ref CancerPPD / SATPdb ||| ... Particulars: cited from earlier work. From the text:
Supplement ijms-22-05630-s001.zip/ACPs(seguence).xlsx, sheet "D1" | column: Activity || Supplement ijms-22-05630-s001.zip/ACPs(seguence).xlsx, sheet "D2" | column: Activity || Supplement ijms-22-05630-s001.zip/ACPs(seguence).xlsx, sheet "D3" | column: Activity || (+ 2 further places)

Where [1] appears, read: ACPs dataset D3 (supplement sheet "D3"), 1 = ACP, 0 = non-ACP, ref CancerPPD [45] and SATPdb.
Where [2] appears, read: ACPs dataset D4 (sheet "D4"), label 1 = ACP (CancerPPD ID), 0 = non-ACP (non-anticancer AMP, SATPdb ID), ref CancerPPD [45] and SATPdb.
Where [3] appears, read: ACPs dataset D5 (sheet "D5"), label 1 = ACP (positive set), 0 = non-ACP (negative set), ref CancerPPD [45] and SATPdb.
[4] abbreviates: ACPs dataset D3 (sheet "D3"), label 1 = ACP, 0 = non-ACP, ref CancerPPD/SATPdb.
[5] abbreviates: ACPs dataset D4 (sheet "D4"), label 1 = ACP, 0 = non-ACP, ref CancerPPD / SATPdb.
The mark [6] stands for this setting: ACPs dataset D5, sheet "D5", label 1 = ACP, 0 = non-ACP, ref CancerPPD [45] and SATPdb.
Setting [7] is: ACPs dataset D1, 1 = ACP (positive), 0 = non-ACP (negative), label taken from databases, ref CancerPPD [45] and SATPdb.
Where [8] appears, read: ACPs dataset D4 (sheet "D4"), label 1 = ACP, experimentally validated ACPs, ref CancerPPD [45] and SATPdb.
The mark [9] stands for this setting: ACPs dataset D5 (sheet "D5"), label 1 = ACP (positive set), sequences with CancerPPD/SATPdb ID, ref CancerPPD, SATPdb.
Where [10] appears, read: ACPs dataset sheet D2, 1 = ACP (CancerPPD/SATPdb ID), 0 = non-ACP (Swissprot/PDB ID), ref CancerPPD, SATPdb, Swissprot (PDB).
The mark [11] stands for this setting: ACPs dataset D1, label 1 = ACP, 0 = non-ACP (non-anticancer AMPs from SATPdb), ref CancerPPD/SATPdb.

Regarding KWFKKIPKFLHLLKKF [compound 1120], the Activity under setting [1] is on record as 1, the Activity under setting [2] is 1 and the Activity under setting [3] is 1.

On to “KWKEFLKEFKEAKKEVLHEALKAISE [satpdb14503]”, for which the Activity is, setting by setting: under setting [4], 0; under setting [5], 0; under setting [6], 0.

Regarding “KWKIFKKIEHMGQNIRDGLIKAGPAVQVVGQAATIYKG [satpdb11253]”, the Activity by setting is: under setting [7], 0; under setting [2], 0.

Turning to KWKKLLKKPLKLLKKLL [satpdb14017], the Activity under setting [4] was 0, the Activity under setting [5] is 0 and the Activity under setting [6] was 0.

In the case of KWKLF [compound 1209], the Activity reads like this: under setting [1], 1; under setting [2], 1; under setting [3], 1.

As to KWKLFAKIGIGKFLHLAKKF [compound 1837], the Activity runs as follows: under setting [1], 1; under setting [2], 1; under setting [3], 1.

On to KWKLFKKIGIGKFKLAKKF [compound 1206], for which the Activity is 1 under setting [1], 1 under setting [2] and 1 under setting [3].

As for KWKLFKKIGIGKFLHSAKKF [compound 1204], the Activity runs as follows: under setting [1], 1; under setting [2], 1; under setting [3], 1.

On to KWKLFKKIGIGKFLHSATTF [compound 1188], for which the Activity reads like this: under setting [1], 1; under setting [2], 1; under setting [3], 1.

Turning to KWKLFKKIGPGKFLHSAKKF [compound 1186], the Activity by setting is: under setting [1], 1; under setting [2], 1; under setting [3], 1.

As to KWKLFKKIPHLAKKF [compound 1140], the Activity is recorded as 1 under setting [1], 1 under setting [2] and 1 under setting [3].

KWKLFKKIPKFLHLA [compound 1134]: the Activity by setting is: under setting [1], 1; under setting [2], 1; under setting [3], 1.

In the case of KWKLFKKIPKFLHLAKK [compound 1119], the Activity was 1 under setting [1], 1 under setting [2] and 1 under setting [3].

Turning to KWKLFKKIPKFLHLAKKF [compound 3290], the Activity by setting is: under setting [7], 1; under setting [8], 1; under setting [9], 1; under setting [10], 1.

For the substance KWKLFKKIPLHLAKKF [compound 1139], the Activity is, setting by setting: under setting [1], 1; under setting [2], 1; under setting [3], 1.

Regarding KWKLFKKIPLKKF [compound 1122], the Activity under setting [1] was 1, the Activity under setting [2] is reported as 1 and the Activity under setting [3] is listed as 1.

Take “KWKSFAKTFKSAKKTVAHTALKAISS [compound 1445]”: the Activity by setting is: under setting [7], 1; under setting [8], 1; under setting [9], 1; under setting [10], 1.

As to KWKSFIKKAKTSFLHSAKKF [satpdb14273], the Activity reads like this: under setting [4], 0; under setting [5], 0; under setting [6], 0.

In the case of KWKSFIKKLTDKFLHSAKKF [satpdb12512], the Activity runs as follows: under setting [4], 0; under setting [5], 0; under setting [6], 0.

As to “KWKSFLKTFKSLKKTVLHTLLkAISS [compound 3767]”, the Activity reads like this: under setting [1], 1; under setting [2], 1; under setting [3], 1.

On to “KWKSFLKTFKSLKKTVLHTlLKAISS [compound 3757]”, for which the Activity is given as 1 under setting [1], 1 under setting [2] and 1 under setting [3].

Turning to “KWKSFLKTFKSLKkTVLHTLLKAISS [compound 3760]”, the Activity by setting is: under setting [1], 1; under setting [2], 1; under setting [3], 1.

For “KWKSFLKTFKSLKkTVLHTLLkAISS [compound 3766]”, the Activity is, setting by setting: under setting [1], 1; under setting [2], 1; under setting [3], 1.

Regarding “KWKSFLKTFKSlKKTVLHTLLKAISS [compound 3769]”, the Activity is on record as 1 under setting [1], 1 under setting [2] and 1 under setting [3].

As for “KWKSFLKTFKSlKKTVLHTlLKAISS [compound 3756]”, the Activity was 1 under setting [1], 1 under setting [2] and 1 under setting [3].

For the substance “KWKSFlKTFKSLKKTVLHTLLKAISS [compound 3768]”, the Activity by setting is: under setting [1], 1; under setting [2], 1; under setting [3], 1.

In the case of “KWKSFlKTFKSlKKTVLHTLLKAISS [compound 3770]”, the Activity is reported as 1 under setting [1], 1 under setting [2] and 1 under setting [3].

With “KWKSFlKTFKSlKKTVlHTlLKAISS [compound 3772]”, the Activity under setting [1] is 1, the Activity under setting [2] is 1 and the Activity under setting [3] was 1.

In the case of KWLRRVWRWWR [compound 1877], the Activity by setting is: under setting [1], 1; under setting [2], 1; under setting [3], 1.

For “KWkSFLkTFkSLKkTVLHTLLkAISS [compound 3764]”, the Activity under setting [1] is reported as 1, the Activity under setting [2] is listed as 1 and the Activity under setting [3] was 1.

“LCNERPSQTWSGNCGNTAHCDKQCQDWEKASHGACHKRENHWKCFCYFNC [1BK8 NMR - A 1-50]”: the Activity was 0 (ACPs dataset D2 (supplement ACPs(seguence).xlsx, sheet D2), dataset label 1/0 (ACP / non-ACP), entries identified by Swissprot(PDB ID), ref CancerPPD/SATPdb/Swissprot(PDB)) and 0 under setting [3].

In the case of LCYARRRFAVCV [satpdb13142], the Activity by setting is: under setting [11], 0; under setting [5], 0.

As for LCYCRRRFCGCV [satpdb12860], the Activity is, setting by setting: under setting [11], 0; under setting [5], 0.

Turning to LGGIVSAVKKIVDFLG [compound 1903], the Activity by setting is: under setting [1], 1; under setting [2], 1; under setting [3], 1.

As for “LGQSAASAHHAYIVLAIENSFMTASKKK [compound 4207]”, the Activity is reported as 1 under setting [7], 1 under setting [8], 1 under setting [9] and 1 under setting [10].

Consider “LHCPALVTYNTDTFESMPNPEGRYTFGASCV [satpdb27573]”, for which the Activity by setting is: under setting [7], 1; under setting [8], 1; under setting [9], 1; under setting [10], 1.

For LKLGTLVNLAKKIL [satpdb13705], the Activity is listed as 0 under setting [4], 0 under setting [5] and 0 under setting [6].

Take LLGMIPLAISAISALSKL [compound 4453]: the Activity was 1 under setting [7], 1 under setting [8], 1 under setting [9] and 1 under setting [10].

Take LLKKLLKKLLKK [satpdb13272]: the Activity is, setting by setting: under setting [4], 0; under setting [5], 0; under setting [6], 0.

With LLKWLKK [satpdb13213], the Activity reads like this: under setting [4], 0; under setting [5], 0; under setting [6], 0.

As to LNWGAVLKHVVK [satpdb11336], the Activity is recorded as 0 under setting [1], 0 under setting [5] and 0 under setting [6].

Consider “LPKWKVFKKIEKVGRNIRNGIVKAGPAIAVLGEAKALG [compound 4275]”, for which the Activity under setting [1] was 1, the Activity under setting [2] is listed as 1 and the Activity under setting [3] is given as 1.

In the case of LPRFSTMPFIYCNINEVCHY [satpdb13486], the Activity is recorded as 1 under setting [7], 1 under setting [8], 1 under setting [9] and 1 under setting [10].

As to “LRVRLASHLRKLRKRLLRDADDLQKRLAVY [compound 1665]”, the Activity is, setting by setting: under setting [7], 1; under setting [8], 1; under setting [9], 1; under setting [10], 1.

Regarding LSSTCILVLVKSTY [satpdb19063], the Activity by setting is: under setting [7], 1; under setting [8], 1; under setting [9], 1; under setting [10], 1.

In the case of LTAEHYAAQATS [compound 4580], the Activity reads like this: under setting [7], 1; under setting [8], 1; under setting [9], 1; under setting [10], 1.

LTFSDWWKLLAE [compound 5059]: the Activity by setting is: under setting [7], 1; under setting [8], 1; under setting [9], 1; under setting [10], 1.
